# Measured values published in patent US8557380B2, “Form of hydroquinone and production thereof” (Rhodia Operations, priority 2006, dated 2013).
# Read-outs that look alike come from different tables or passages of the source.
# What was measured:
# [1] = particles with dimensions of less than 100 μm
# From the text: The level of the fine particles is defined as the percentage by weight of the particles with dimensions of less than 100 μm.
# Particles which pass through a sieve having a mesh size of 100 μm are regarded according to the invention as fine particles.
# [2] = undried product
# Description: The densities are measured on an undried product according to the test described in the European Phatmacopeia standard [Volume 1, p. 256 (2004), 5th edition], with the only difference that the 250 ml of test specimen is replaced by a 1 liter test specimen.
# [3] = stirred, final concentration 4.8% by weight
# Description: These measurements correspond to a test which consists in measuring the time necessary to dissolve said amount in water maintained at ambient temperature (20° C.) and kept stirred, for example using a propeller stirrer with 4 inclined blades.
# [4] = final concentration 2% by weight
# Description: A similar test is carried out in order to determine the rate of dissolution of the flakes in acrylic acid.
# The test consists in defining the time necessary to dissolve the amount of flakes necessary in order to obtain a final concentration of hydroquinone in the acrylic acid of 2% by weight.
# [5] = sieve mesh size 2.5 mm
# From the text: In order to define the particle size of the product of the invention, the percentage by weight of the particles with dimensions of less than 2.5 mm, that is to say particles which pass through a sieve having a mesh size of 2.5 mm, is also defined.
Compound,% by weight of particles passing through a sieve with a mesh size of 100 μm (level of fine particles) [1] [% by weight],Loose bulk density [2] [g/mL],Tapped bulk density [2] [g/mL],Dissolution time in water at 20° C. (production of a 4.8% by weight solution) [3] [min],Dissolution time in acrylic acid at 20° C. (production of a 2.0% by weight solution) [4] [min],% by weight of particles passing through a sieve with a mesh size of 100 μm (level of fine particles) ([1]; listed as hydroquinone in the powder form) [% by weight],percentage by weight of the particles with dimensions of less than 2.5 mm [5] [% by weight]
"Oc1ccc(O)cc1 [Example 3, hydroquinone]",0.9,0.48,0.67,18,35,,
"Oc1ccc(O)cc1 [Example 1, hydroquinone]",0.8,0.52,0.70,21,45,,
"Oc1ccc(O)cc1 [Example 4, hydroquinone]",0.8,0.46,0.61,14,30,,
"Oc1ccc(O)cc1 [Example 2, hydroquinone]",0.7,0.47,0.65,15,30,,

# Other lines, results leading:
% by weight of particles passing through a sieve with a mesh size of 100 μm (level of fine particles) [1] [% by weight],Loose bulk density [2] [g/mL],Tapped bulk density [2] [g/mL],Dissolution time in water at 20° C. (production of a 4.8% by weight solution) [3] [min],Dissolution time in acrylic acid at 20° C. (production of a 2.0% by weight solution) [4] [min],% by weight of particles passing through a sieve with a mesh size of 100 μm (level of fine particles) ([1]; listed as hydroquinone in the powder form) [% by weight],percentage by weight of the particles with dimensions of less than 2.5 mm [5] [% by weight],Compound
,,,9,20,~20,100,"Oc1ccc(O)cc1 [hydroquinone powder, hydroquinone]"
0.9,0.53,0.66,14,30,,,"Oc1ccc(O)cc1 [Example 5, hydroquinone]"
